The structures appear in SMILES notation.

Broadly, the IC50 is the concentration at which inhibition is half-maximal. Low readings indicate greater potency in that assay, high ones weaker potency in that assay.

T1 sequence (Q9NZQ7 19-239 limits assumed): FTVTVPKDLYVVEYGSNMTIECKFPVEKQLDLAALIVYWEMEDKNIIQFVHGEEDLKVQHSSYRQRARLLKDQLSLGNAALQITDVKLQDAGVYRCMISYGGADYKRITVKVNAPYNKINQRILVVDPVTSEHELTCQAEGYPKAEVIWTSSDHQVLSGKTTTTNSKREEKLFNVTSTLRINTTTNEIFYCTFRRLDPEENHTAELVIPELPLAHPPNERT

This assay concerns the target T1, human PD-L1 / human PD-1 interaction (Homo sapiens, UniProt Q9NZQ7).
T1 construct: purchased R&D (PD-L1); ACRO Biosystems (PD-1, biotin)
Nature of the assay: ELISA of PD-1/PD-L1 interaction. Format: binding. A digest of the protocol:
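Plates coated with 1 μg/mL human PD-L1 and blocked with BSA; serially diluted (1:5) compounds plus biotinylated human PD-1 (0.3 μg/mL) incubated 1 h at 37° C. Bound PD-1 detected with streptavidin-HRP/TMB, absorbance at 450 nm.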
With `Cc1c(OCCCN2CCC(O)CC2)cccc1-c1cccc2c1CCC2Oc1cc(OCc2cncc(C#N)c2)c(CN[C@H](C(=O)O)[C@@H](C)O)cc1Cl` (stereo partly drawn), the IC50 is under 5 nM.

Regarding `Cc1c(OCCCN2CCC(O)CC2)cccc1-c1cccc2c1CCC2Oc1cc(OCc2cc(C#N)cc(C#N)c2)c(CN[C@@H](CO)C(=O)O)cc1Cl` (stereo partly drawn), the IC50 is under 5 nM.

`Cc1c(OCCCN2CCC(O)CC2)cccc1-c1cccc2c1CC[C@@H]2Oc1cc(OCc2cc(C#N)cc(C#N)c2)c(CN[C@@H](CO)C(=O)O)cc1Cl` registered an IC50 of under 5 nM.

`Cc1c(OCCCN2CC[C@@H](O)[C@H](F)C2)cccc1-c1cccc2c1CC[C@@H]2Oc1cc(OCc2cncc(C#N)c2)c(CN[C@H](C(=O)O)[C@@H](C)O)cc1Cl` gave an IC50 of 5 to 500 nM.

Molecule `Cc1c(OCCCN2CCC(O)CC2)cccc1-c1cccc2c1CC[C@@H]2Oc1cc(OCc2cc(C#N)cc(C#N)c2)c(CN[C@H](C(=O)O)[C@@H](C)O)cc1Cl` came in with a concentration for half-maximal inhibition (IC50) of under 5 nM.

Molecule `Cc1c(OCCCN2CCC(O)CC2)cccc1-c1cccc2c1CC[C@@H]2Oc1cc(OCc2cc(C#N)cc(C#N)c2)c(CN[C@@H]2CCCC[C@@H]2O)cc1Cl` returned an IC50 of under 5 nM.

As for `Cc1c(OCCCN2CC[C@H](O)[C@H](F)C2)cccc1-c1cccc2c1CC[C@@H]2Oc1cc(OCc2cncc(C#N)c2)c(CN[C@H](C(=O)O)[C@@H](C)O)cc1Cl`, the half-maximal inhibitory concentration (IC50) is under 5 nM.

For the molecule `Cc1c(OCCCN2CCC[C@H]2CO)cccc1-c1cccc2c1CC[C@@H]2Oc1cc(OCc2cncc(C#N)c2)c(CN[C@H](C(=O)O)[C@@H](C)O)cc1Cl`, the IC50 is under 5 nM.

In turn, `Cc1c(OCCCN[C@@H]2CCCC[C@@H]2O)cccc1-c1cccc2c1CC[C@@H]2Oc1cc(OCc2cncc(C#N)c2)c(CN[C@H](C(=O)O)[C@@H](C)O)cc1Cl` showed a half-inhibitory concentration (IC50) of under 5 nM.

`N#Cc1cncc(COc2cc(O[C@H]3CCc4c(-c5cccc(OCCCN6CCC(O)CC6)c5Cl)cccc43)c(Cl)cc2CN[C@@H]2CCCC[C@@H]2O)c1` came in with an IC50 of under 5 nM.

As to `N#Cc1cncc(COc2cc(O[C@H]3CCc4c(-c5cccc(OCCCN6CCC(O)CC6)c5Cl)cccc43)c(Cl)cc2CNC(CO)CO)c1`, the IC50 is under 5 nM.

As to `Cc1c(OCCCNC[C@@H](O)CO)cccc1-c1cccc2c1CC[C@@H]2Oc1cc(OCc2cncc(C#N)c2)c(CN[C@H](C(=O)O)[C@@H](C)O)cc1Cl`, the 50% inhibitory concentration (IC50) is under 5 nM.

Regarding `Cc1c(OCCCN2CCC(O)CC2)cccc1-c1cccc2c1CC[C@H]2Oc1cc(OCc2cncc(C#N)c2)c(CN[C@H](C(=O)O)[C@@H](C)O)cc1Cl`, the IC50 was under 5 nM.

In turn, `Cc1c(OCCCN2CCC(O)CC2)cccc1-c1cccc2c1CC[C@@H]2Oc1cc(OCCCN2CC[C@@H](O)C2)c(CN[C@@H]2CCCC[C@@H]2O)cc1Cl` had a concentration for half-maximal inhibition (IC50) of under 5 nM.

With `CCOc1cc(O[C@H]2CCc3c(-c4cccc(OCCCN5CC(O)C5)c4C)cccc32)c(Cl)cc1CN[C@@H](CO)C(=O)O`, the IC50 is under 5 nM.

`CCOc1cc(O[C@H]2CCc3c(-c4cccc(OCCCN5CCC(F)CC5)c4C)cccc32)c(Cl)cc1CN[C@@H](CO)C(=O)O`: the half-maximal inhibitory concentration (IC50) was under 5 nM.

`CCOc1cc(O[C@H]2CCc3c(-c4cccc(OCCCN5CC6(CC(O)C6)C5)c4C)cccc32)c(Cl)cc1CN[C@@H](CO)C(=O)O` came in with an IC50 of under 5 nM.

As for `Cc1c(OCCCN2CCCC2C(C)C)cccc1-c1cccc2c1CC[C@@H]2Oc1cc(OCc2cc(C#N)cc(C#N)c2)c(CN[C@H]2CCC(=O)NC2)cc1Cl` (stereo partly drawn), the IC50 was in the range of 5 to 500 nM.

On to `Cc1c(OCCCN2CCCC2(C)C)cccc1-c1cccc2c1CC[C@@H]2Oc1cc(OCc2cc(C#N)cc(C#N)c2)c(CN[C@H]2CCC(=O)NC2)cc1Cl`, for which the IC50 was under 5 nM.

In the case of `CCN1CCC(COc2cccc(-c3cccc4c3CC[C@@H]4Oc3cc(OCc4cncc(C#N)c4)c(CN[C@H]4CCC(=O)NC4)cc3Cl)c2Cl)C1` (stereo partly drawn), the IC50 is under 5 nM.

Take `Cc1c(OCCCN2CCCC[C@@H]2C)cccc1-c1cccc2c1CC[C@@H]2Oc1cc(OCc2cc(C#N)cc(C#N)c2)c(CN[C@H]2CCC(=O)NC2)cc1Cl`: the IC50 is under 5 nM.

`Cc1c(OCCCN2CCC(F)CC2)cccc1-c1cccc2c1CC[C@@H]2Oc1cc(OCc2cc(C#N)cc(C#N)c2)c(CNC2CCNC(=O)C2)cc1Cl` (stereo partly drawn) displayed an IC50 of under 5 nM.

In turn, `Cc1c(OCCCN2C(C)CC2C)cccc1-c1cccc2c1CC[C@@H]2Oc1cc(OCc2cc(C#N)cc(C#N)c2)c(CN[C@H]2CCC(=O)NC2)cc1Cl` (stereo partly drawn) registered an IC50 of under 5 nM.

Regarding `Cc1c(OCCCN2CCC2(C)C)cccc1-c1cccc2c1CC[C@@H]2Oc1cc(OCc2cc(C#N)cc(C#N)c2)c(CN[C@H]2CCC(=O)NC2)cc1Cl`, the half-maximal inhibitory concentration (IC50) was under 5 nM.

As to `N#Cc1cncc(COc2cc(O[C@H]3CCc4c(-c5cccc(OCCCN6CCC(F)CC6)c5Cl)cccc43)c(Cl)cc2CN2CC(C(=O)O)C2)c1`, the half-maximal inhibitory concentration (IC50) is under 5 nM.

Molecule `Cc1c(OCCCN2[C@H](C)CC[C@@H]2C)cccc1-c1cccc2c1CC[C@@H]2Oc1cc(OCc2cc(C#N)cc(C#N)c2)c(CN[C@H]2CCC(=O)NC2)cc1Cl` registered an IC50 of under 5 nM.

As to `Cc1c(OCCCN2[C@H](C)CC[C@H]2C)cccc1-c1cccc2c1CC[C@@H]2Oc1cc(OCc2cc(C#N)cc(C#N)c2)c(CN[C@H]2CCC(=O)NC2)cc1Cl`, the IC50 is under 5 nM.

Molecule `Cc1c(OCCCN2[C@@H](C)CC[C@@H]2C)cccc1-c1cccc2c1CC[C@@H]2Oc1cc(OCc2cc(C#N)cc(C#N)c2)c(CN[C@H]2CCC(=O)NC2)cc1Cl` gave an IC50 of under 5 nM.

In turn, `Cc1c(OCCCN2CC(C)(C)C2)cccc1-c1cccc2c1CC[C@@H]2Oc1cc(OCc2cc(C#N)cc(C#N)c2)c(CN[C@H]2CCC(=O)NC2)cc1Cl` registered an IC50 of under 5 nM.

As for `Cc1c(OCCCN2CC[C@H](F)C[C@@H]2C)cccc1-c1cccc2c1CC[C@@H]2Oc1cc(OCc2cc(C#N)cc(C#N)c2)c(CN[C@H]2CCC(=O)NC2)cc1Cl`, the concentration for half-maximal inhibition (IC50) was 5 to 500 nM.

Molecule `CCOc1cc(O[C@H]2CCc3c(-c4cccc(OCCCN5CCC5(C)C)c4C)cccc32)c(Cl)cc1CNC[C@@H]1CCC(=O)N1` yielded an IC50 of under 5 nM.

With `CCOc1cc(O[C@H]2CCc3c(-c4cccc(OCCCN5[C@H](C)CC[C@H]5C)c4C)cccc32)c(Cl)cc1CNC[C@@H]1CCC(=O)N1`, the half-inhibitory concentration (IC50) is under 5 nM.

Consider `CCOc1cc(O[C@H]2CCc3c(-c4cccc(OCCCN5CCC[C@@H]5C(C)C)c4C)cccc32)c(Cl)cc1CNC[C@@H]1CCC(=O)N1`, for which the concentration for half-maximal inhibition (IC50) was under 5 nM.

The molecule `CCOc1cc(O[C@H]2CCc3c(-c4cccc(OCCCN(C)C(C)(C)C)c4C)cccc32)c(Cl)cc1CNC[C@@H]1CCC(=O)N1` showed an IC50 of under 5 nM.

On to `CCOc1cc(O[C@H]2CCc3c(-c4cccc(OCCCN(C)C(C)C)c4C)cccc32)c(Cl)cc1CNC[C@@H]1CCC(=O)N1`, for which the IC50 is under 5 nM.

In the case of `CCOc1cc(O[C@H]2CCc3c(-c4cccc(OCCCN5CCCC5(C)C)c4C)cccc32)c(Cl)cc1CNC[C@@H]1CCC(=O)N1`, the IC50 was under 5 nM.

`CCOc1cc(O[C@H]2CCc3c(-c4cccc(OCCCN5C(C)CC5(C)C)c4C)cccc32)c(Cl)cc1CNC[C@@H]1CCC(=O)N1` (stereo partly drawn) had an IC50 of under 5 nM.

In turn, `CCOc1cc(O[C@H]2CCc3c(-c4cccc(OCCCN5CCC5(C)C)c4C)cccc32)c(Cl)cc1CNCCO` returned a 50% inhibitory concentration (IC50) of under 5 nM.

Molecule `CCOc1cc(O[C@H]2CCc3c(-c4cccc(OCCCN5C(C)CC5C)c4C)cccc32)c(Cl)cc1CNC[C@@H]1CCC(=O)N1` (stereo partly drawn) returned a half-inhibitory concentration (IC50) of under 5 nM.

Molecule `CCOc1cc(O[C@H]2CCc3c(-c4cccc(OCCCN5CCC5(C)C)c4C)cccc32)c(Cl)cc1CN(C)CC(=O)O` had an IC50 of 5 to 500 nM.

For the molecule `CCOc1cc(O[C@H]2CCc3c(-c4cccc(OCCCN5[C@H](C)CC[C@H]5C)c4C)cccc32)c(Cl)cc1CN1CCCC[C@H]1C(=O)O`, the IC50 fell in the range of 5 to 500 nM.

As for `Cc1c(OCCCN2CCC(O)CC2)cccc1-c1cccc2c1CC[C@@H]2Oc1cc(OCc2cncc(C#N)c2)c(CN(C)[C@H](C(=O)O)[C@@H](C)O)cc1Cl`, the half-maximal inhibitory concentration (IC50) was under 5 nM.

`CN(Cc1cc(Cl)c(O[C@H]2CCc3c(-c4cccc(OCCCN5CC(O)C5)c4Cl)cccc32)cc1OCc1cncc(C#N)c1)[C@@](C)(CO)C(=O)O`: the IC50 was under 5 nM.

`Cc1c(OCCCN2CCC(F)CC2)cccc1-c1cccc2c1CC[C@@H]2Oc1cc(OCc2cncc(C(N)=O)c2)c(CN(C)CCC(=O)O)cc1Cl` showed an IC50 of under 5 nM.

`CCOc1cc(O[C@H]2CCc3c(-c4cccc(OCCCN5CCC5(C)C)c4C)cccc32)c(Cl)cc1CNCCC(=O)OC(C)C` registered a half-inhibitory concentration (IC50) of 5 to 500 nM.

`CCOc1cc(O[C@H]2CCc3c(-c4cccc(OCCCN5CCC5(C)C)c4C)cccc32)c(Cl)cc1CN(C)CCCC(=O)O`: the IC50 is under 5 nM.

The molecule `Cc1c(OCCCN2CCC(F)CC2)cccc1-c1cccc2c1CC[C@@H]2Oc1cc(OCc2cncc(C#N)c2)c(CNCCS(=O)(=O)O)cc1Cl` displayed a concentration for half-maximal inhibition (IC50) of under 5 nM.

Molecule `CCOc1cc(O[C@H]2CCc3c(-c4cccc(OCCCN5CCC5(C)C)c4C)cccc32)c(Cl)cc1CN1CC[C@H](C(=O)O)C1` returned a half-inhibitory concentration (IC50) of 5 to 500 nM.

In the case of `C[C@@](CO)(NCc1cc(Cl)c(O[C@H]2CCc3c(-c4cccc(OCCCN5CC(O)C5)c4Cl)cccc32)cc1OCc1cncc(C#N)c1)C(=O)O` [drawing 79], the 50% inhibitory concentration (IC50) was under 5 nM.

Take `N#Cc1cncc(COc2cc(O[C@H]3CCc4c(-c5cccc(OCCCN6CCC(F)CC6)c5Cl)cccc43)c(Cl)cc2CN[C@H]2CCOC[C@@H]2O)c1` [drawing 198]: the IC50 is under 5 nM.

`N#Cc1cncc(COc2cc(O[C@H]3CCc4c(-c5cccc(OCCCN6CCC(F)CC6)c5Cl)cccc43)c(Cl)cc2CN[C@H]2CCOC[C@@H]2O)c1` [drawing 235] returned a 50% inhibitory concentration (IC50) of under 5 nM.

The values are drawn from US20210236476A1, “METHODS OF TREATING CANCER WITH SMALL MOLECULE PD-L1 INHIBITORS” (CHEMOCENTRYX, INC., priority 2018, published 2021).
